In patent US20050245399A1, “Pyrazole derivatives as herbicidal compositions containing them” (ISHIHARA SANGYO KAISHA, LTD., priority 2004, published 2005):

Tested on: soybean (Glycine max Merr.): GLXMA
Test: Test Example 1 pre-emergence herbicidal activity, GLXMA
Assay type: in vivo
Conditions: Rate 63 g a.i./ha, visually observed 20th to 23rd day after application
Summary of the method: (§1)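 Pots of upland soil were sown, and one day later WP or EC formulations at set active-ingredient rates were sprayed pre-emergence in 500 L/ha water. Growth control scored visually 20–23 days after application, 0 (as untreated) to 100 (complete kill).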

**Q.** `COc1ccc(C(=O)Nc2c(OC)c(Cl)cc(F)c2-c2nn(C)c(OC(F)F)c2Cl)cc1` [Compound 1-29] was tested. Which “Pre-emergence Herbicidal Activity GLXMA (growth controlling degree)” value did it give?
**A.** 20%

Tested on: redroot pigweed (Amaranthus retroflexus L.): AMARE
Test: Test Example 1 pre-emergence herbicidal activity, AMARE
Assay type: in vivo
Conditions: Rate 63 g a.i./ha, visually observed 20th to 23rd day after application
Summary of the method: as §1

**Q.** Which “Pre-emergence Herbicidal Activity AMARE (growth controlling degree)” value does the source give for `COc1ccc(C(=O)Nc2c(OC)c(Cl)cc(F)c2-c2nn(C)c(OC(F)F)c2Cl)cc1` [Compound 1-29] here?
**A.** 100%

Tested on: prickly sida (Sida spinosa L.), SIDSP
Test: Test Example 2 post-emergence (foliage treatment) herbicidal activity, SIDSP
Assay type: in vivo
Conditions: 63 g a.i./ha
Summary of the method: (§2)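 Each species was evaluated for growth suppression by eye, 0% matching untreated and 100% meaning death, some 20 to 23 days after a single post-emergence foliar treatment applied in 500 L/ha of water carrying 0.1% (v/v) agricultural spreader.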

**Q.** With `COc1ccc(C(=O)Nc2c(OC)c(Cl)cc(F)c2-c2nn(C)c(OC(F)F)c2Cl)cc1` [Compound 1-29] as the compound, how does the “growth controlling degree, SIDSP” value read?
**A.** 100%

Tested on: barnyardgrass (Echinochiloa oryzicola: ECHOR)
Test: Test Example 3 water application herbicidal activity (paddy), ECHOR
Assay type: in vivo
Conditions: 63 g a.i./ha, water application under submerged condition at 0.5 leaf stage, visually observed 14th day after application; 0 = untreated control, 100 = complete kill
Summary of the method: (§3)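 Compound, as diluted wettable powder or emulsifiable concentrate, was pipetted into flood water at a set active-ingredient dose. Weeds were treated at 0.5-leaf stage after sowing or tuber planting; 2-leaf rice 4 days post-transplant. Control scored visually, 0 untreated to 100 complete kill, weeds day 14, rice day 21.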

**Q.** With `COc1ccc(C(=O)Nc2c(OC)c(Cl)cc(F)c2-c2nn(C)c(OC(F)F)c2Cl)cc1` [Compound 1-29] as the compound, how does the “growth controlling degrees (%) ECHOR” value read?
**A.** 100%

Tested on: rice (Oryza sativa L.), ORYSA
Test: Test Example 2 post-emergence (foliage treatment) herbicidal activity, ORYSA
Assay type: in vivo
Conditions: 63 g a.i./ha
Summary of the method: (§4)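 Plants grown in upland soil pots were sprayed on foliage at set leaf stages (ECHCG 1.1-2.1, DIGSA 1.0-2.0, AMARE 0.1-1.5, ORYSA 1.0-2). Formulated compound was applied at predetermined active-ingredient amounts in 500 L/ha water with 0.1% (v/v) spreader. Growth control (0–100%) was visually scored 20–23 days later.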

**Q.** For `COc1ccc(C(=O)Nc2c(OC)c(Cl)cc(F)c2-c2nn(C)c(OC(F)F)c2Cl)cc1` [Compound 1-29], which “growth controlling degree, ORYSA” value is on record?
**A.** 80%

Tested on: velvetleaf (Abutilon theophrasti): ABUTH
Test: Test Example 1 pre-emergence herbicidal activity, ABUTH
Assay type: in vivo
Conditions: Rate 63 g a.i./ha, visually observed 20th to 23rd day after application
Summary of the method: as §1

**Q.** Which “Pre-emergence Herbicidal Activity ABUTH (growth controlling degree)” value does the source give for `COc1ccc(C(=O)Nc2c(OC)c(Cl)cc(F)c2-c2nn(C)c(OC(F)F)c2Cl)cc1` [Compound 1-29] here?
**A.** 100%

Tested on: japanese bulrush (Scirpus juncoides: SCPJO)
Test: Test Example 3 water application herbicidal activity (paddy), SCPJO
Assay type: in vivo
Conditions: 63 g a.i./ha, water application under submerged condition at 0.5 leaf stage, visually observed 14th day after application; 0 = untreated control, 100 = complete kill
Summary of the method: as §3

**Q.** Which “growth controlling degrees (%) SCPJO” value does the source give for `COc1ccc(C(=O)Nc2c(OC)c(Cl)cc(F)c2-c2nn(C)c(OC(F)F)c2Cl)cc1` [Compound 1-29] here?
**A.** 50%

Tested on: crabgrass (Digitaria sanguinalis L.): DIGSA
Test: Test Example 1 pre-emergence herbicidal activity, DIGSA
Assay type: in vivo
Conditions: Rate 63 g a.i./ha, visually observed 20th to 23rd day after application
Summary of the method: as §1

**Q.** How did the “Pre-emergence Herbicidal Activity DIGSP (growth controlling degree)” value turn out when `COc1ccc(C(=O)Nc2c(OC)c(Cl)cc(F)c2-c2nn(C)c(OC(F)F)c2Cl)cc1` [Compound 1-29] was run?
**A.** 100%

Tested on: velvetleaf (Abutilon theophrasti), ABUTH
Test: Test Example 2 post-emergence (foliage treatment) herbicidal activity, ABUTH
Assay type: in vivo
Conditions: 63 g a.i./ha
Summary of the method: as §2

**Q.** `COc1ccc(C(=O)Nc2c(OC)c(Cl)cc(F)c2-c2nn(C)c(OC(F)F)c2Cl)cc1` [Compound 1-29] was tested. Which “growth controlling degree, ABUTH” value did it give?
**A.** 95%

Tested on: corn (Zea mays L.), ZEAMX
Test: Test Example 2 post-emergence (foliage treatment) herbicidal activity, ZEAMX
Assay type: in vivo
Conditions: 63 g a.i./ha
Summary of the method: as §2

**Q.** `COc1ccc(C(=O)Nc2c(OC)c(Cl)cc(F)c2-c2nn(C)c(OC(F)F)c2Cl)cc1` [Compound 1-29] was tested. Which “growth controlling degree, ZEAMX” value did it give?
**A.** 60%

Tested on: wheat (Triticum aestivum L.): TRZAX
Test: Test Example 1 pre-emergence herbicidal activity, TRZAX
Assay type: in vivo
Conditions: Rate 63 g a.i./ha, visually observed 20th to 23rd day after application
Summary of the method: as §1

**Q.** How did the “Pre-emergence Herbicidal Activity TRZAX (growth controlling degree)” value turn out when `COc1ccc(C(=O)Nc2c(OC)c(Cl)cc(F)c2-c2nn(C)c(OC(F)F)c2Cl)cc1` [Compound 1-29] was run?
**A.** 10%

Tested on: green foxtail (Setaria viridis L.): SETVI
Test: Test Example 1 pre-emergence herbicidal activity, SETVI
Assay type: in vivo
Conditions: Rate 63 g a.i./ha, visually observed 20th to 23rd day after application
Summary of the method: as §1

**Q.** With `COc1ccc(C(=O)Nc2c(OC)c(Cl)cc(F)c2-c2nn(C)c(OC(F)F)c2Cl)cc1` [Compound 1-29] as the compound, how does the “Pre-emergence Herbicidal Activity SETVI (growth controlling degree)” value read?
**A.** 100%

Tested on: barnyardgrass (Echinochloa crus-galli L.): ECHCG
Test: Test Example 1 pre-emergence herbicidal activity, ECHCG
Assay type: in vivo
Conditions: Rate 63 g a.i./ha, visually observed 20th to 23rd day after application
Summary of the method: as §1

**Q.** `COc1ccc(C(=O)Nc2c(OC)c(Cl)cc(F)c2-c2nn(C)c(OC(F)F)c2Cl)cc1` [Compound 1-29] was tested. Which “Pre-emergence Herbicidal Activity ECHCG (growth controlling degree)” value did it give?
**A.** 80%

Tested on: barnyardgrass (Echinochloa crus-galli L.), ECHCG
Test: Test Example 2 post-emergence (foliage treatment) herbicidal activity, ECHCG
Assay type: in vivo
Conditions: 63 g a.i./ha
Summary of the method: as §4

**Q.** Which “growth controlling degree, ECHCO” value does the source give for `COc1ccc(C(=O)Nc2c(OC)c(Cl)cc(F)c2-c2nn(C)c(OC(F)F)c2Cl)cc1` [Compound 1-29] here?
**A.** 100%

Tested on: crabgrass (Digitaria sanguinalis L.), DIGSA
Test: Test Example 2 post-emergence (foliage treatment) herbicidal activity, DIGSA
Assay type: in vivo
Conditions: 63 g a.i./ha
Summary of the method: as §4

**Q.** `COc1ccc(C(=O)Nc2c(OC)c(Cl)cc(F)c2-c2nn(C)c(OC(F)F)c2Cl)cc1` [Compound 1-29] was tested. Which “growth controlling degree, DIGSP” value did it give?
**A.** 100%

Tested on: wheat (Triticum aestivum L.), TRZAX
Test: Test Example 2 post-emergence (foliage treatment) herbicidal activity, TRZAX
Assay type: in vivo
Conditions: 63 g a.i./ha
Summary of the method: as §2

**Q.** How did the “growth controlling degree, TRZAX” value turn out when `COc1ccc(C(=O)Nc2c(OC)c(Cl)cc(F)c2-c2nn(C)c(OC(F)F)c2Cl)cc1` [Compound 1-29] was run?
**A.** 50%

Tested on: rice (Oryza sativa L.: ORYSA)
Test: Test Example 3 water application herbicidal activity (paddy), transplanted rice ORYSA
Assay type: in vivo
Conditions: 63 g a.i./ha, water application 4th day after transplantation of 2 leaf stage rice, visually observed 21st day after application; 0 = untreated control, 100 = complete kill
Summary of the method: as §3

**Q.** `COc1ccc(C(=O)Nc2c(OC)c(Cl)cc(F)c2-c2nn(C)c(OC(F)F)c2Cl)cc1` [Compound 1-29] was tested. Which “growth controlling degrees (%) ORYSA” value did it give?
**A.** 50%

Tested on: rice (Oryza sativa L.): ORYSA
Test: Test Example 1 pre-emergence herbicidal activity, ORYSA
Assay type: in vivo
Conditions: Rate 63 g a.i./ha, visually observed 20th to 23rd day after application
Summary of the method: as §1

**Q.** How did the “Pre-emergence Herbicidal Activity ORYSA (growth controlling degree)” value turn out when `COc1ccc(C(=O)Nc2c(OC)c(Cl)cc(F)c2-c2nn(C)c(OC(F)F)c2Cl)cc1` [Compound 1-29] was run?
**A.** 40%

Tested on: prickly sida (Sida spinosa L.): SEDSP
Test: Test Example 1 pre-emergence herbicidal activity, SIDSP
Assay type: in vivo
Conditions: Rate 63 g a.i./ha, visually observed 20th to 23rd day after application
Summary of the method: as §1

**Q.** Which “Pre-emergence Herbicidal Activity SIDSP (growth controlling degree)” value does the source give for `COc1ccc(C(=O)Nc2c(OC)c(Cl)cc(F)c2-c2nn(C)c(OC(F)F)c2Cl)cc1` [Compound 1-29] here?
**A.** 100%

Tested on: japanese ribbon wapato (Sagittaria pygmaea: SA GPY)
Test: Test Example 3 water application herbicidal activity (paddy), SAGPY
Assay type: in vivo
Conditions: 63 g a.i./ha, water application under submerged condition, tubers planted, visually observed 14th day after application; 0 = untreated control, 100 = complete kill
Summary of the method: as §3

**Q.** Which “growth controlling degrees (%) SAGPY” value does the source give for `COc1ccc(C(=O)Nc2c(OC)c(Cl)cc(F)c2-c2nn(C)c(OC(F)F)c2Cl)cc1` [Compound 1-29] here?
**A.** 60%

Tested on: soybean (Glycine max Merr.), GLXMA
Test: Test Example 2 post-emergence (foliage treatment) herbicidal activity, GLXMA
Assay type: in vivo
Conditions: 63 g a.i./ha
Summary of the method: as §2

**Q.** For `COc1ccc(C(=O)Nc2c(OC)c(Cl)cc(F)c2-c2nn(C)c(OC(F)F)c2Cl)cc1` [Compound 1-29], which “growth controlling degree, GLXMA” value is on record?
**A.** 100%

Tested on: redroot pigweed (Amaranthus retroflexus L.), AMARE
Test: Test Example 2 post-emergence (foliage treatment) herbicidal activity, AMARE
Assay type: in vivo
Conditions: 63 g a.i./ha
Summary of the method: as §4

**Q.** How did the “growth controlling degree, AMARE” value turn out when `COc1ccc(C(=O)Nc2c(OC)c(Cl)cc(F)c2-c2nn(C)c(OC(F)F)c2Cl)cc1` [Compound 1-29] was run?
**A.** 100%

Tested on: green foxtail (Setaria viridis L.), SETVI
Test: Test Example 2 post-emergence (foliage treatment) herbicidal activity, SETVI
Assay type: in vivo
Conditions: 63 g a.i./ha
Summary of the method: as §2

**Q.** `COc1ccc(C(=O)Nc2c(OC)c(Cl)cc(F)c2-c2nn(C)c(OC(F)F)c2Cl)cc1` [Compound 1-29] was tested. Which “growth controlling degree, SETVI” value did it give?
**A.** 100%

Tested on: corn (Zea mays L.): ZEAMX
Test: Test Example 1 pre-emergence herbicidal activity, ZEAMX
Assay type: in vivo
Conditions: Rate 63 g a.i./ha, visually observed 20th to 23rd day after application
Summary of the method: as §1

**Q.** Which “Pre-emergence Herbicidal Activity ZEAMX (growth controlling degree)” value does the source give for `COc1ccc(C(=O)Nc2c(OC)c(Cl)cc(F)c2-c2nn(C)c(OC(F)F)c2Cl)cc1` [Compound 1-29] here?
**A.** 20%
